According to US7166296B2, “Pharmaceutical formulations and ligands for use therein; mimetics for UEA-1” (Sarlan, Ltd., priority 2001, dated 2007):

Experiments:
Parameters in all cases: species or system human
[1] = system: UEA-1 binding sites on Caco-2 cell membrane preparations; experiment: Single tier competition assay: inhibition of biotinylated UEA-1 binding, compound and biotinylated UEA-1 incubated together; settings: library MSI 27; for IC50: read-out: Single Tier Assay IC50
Procedure, shortened: (§1)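 Plates coated with Caco-2 membrane preparation (10 μg/ml, carbonate buffer pH 9.6) and BSA-blocked. Single tier: compound and biotinylated UEA-1 incubated together overnight. Two tier: compound incubated overnight with membranes first, biotinylated UEA-1 added next. Bound UEA-1 detected by streptavidin-HRP/OPD, OD490.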

[2] = system: UEA-1 binding sites on Caco-2 cell membrane preparations; experiment: Two tier competition assay: compound incubated alone with membranes, biotinylated UEA-1 added in next step; settings: library MSI 27; for IC50: read-out: Two Tier Assay IC50
Procedure, shortened: as §1

[3] = system: UEA-1 binding sites on Caco-2 cell membrane preparations; experiment: Competition assay of biotinylated UEA-1 binding, tier (single/two) not given; settings: tier not printed, library TPI 1066
Protocol: The epithelial cell binding ability of compounds and mixtures obtained from synthetic combinatorial libraries was determined by competition assays. These assays were set up to measure the inhibition of binding of biotinylated UEA-1 to membrane preparations of the epithelial cell line Caco-2 (colon carcinoma cells-2), by compounds and mixtures of the combinatorial libraries. This cell line is a conventional model for epithelial cells.
Two competition inhibition assays were used in this case, namely single tier and two tier assays. These assays differed from each other in that in the single tier assay, the mixtures/compounds and the biotinylated UEA-1 were incubated together with the Caco-2 cell membrane preparations, while in case of the two-tier assay, the mixture/compounds were allowed to incubate alone with the cell membranes in the absence of biotinylated UEA-1, which was added in the next step. Addition of the extra step in the two-tier assay was to ensure that the compounds inhibiting the binding of biotinylated UEA-1 to the Caco-2 cell membranes were doing so by themselves binding to surface receptors on the Caco-2 cells and not to the biotinylated UEA-1. Each assay will be described in detail.
• 1. Confluent Caco-2 cell monolayers (grown in 75 cm^2 flasks for up to 1 week at 37° C. and 5% CO2) were washed twice in Dulbecco's PBS (DPBS). • 2. Cell monolayers were treated with 10 mM EDTA-DPBS for 5–10 min at 37° C. and cells were harvested by centrifugation at 1000 rpm for 5 min. • 3. Cells were washed 3 times in DPBS. • 4. […] The cells were homogenised for 30 sec. • 6. The homogenates were centrifuged in hard walled tubes at 40,000 rpm for 45 min at 4° C. • 7. […] The supernatant was removed and stored on ice. The procedure was repeated adding the second supernatant to the first. • 8. The protein concentration was determined using e.g. a Bio-Rad protein assay. • 9. All fractions were stored at −80° C. prior to use. Single Tier Assays: • 1. 96-well microtiter plates were coated with membrane preparations of Caco-2 cells either by allowing them to incubate on the plates for 2½ hours at room temperature or by incubating them overnight at 4° C. 100 μl of 10 μg/ml (in 0.05 M carbonate buffer, pH 9.6) of membrane preparation was added to each well. • 2. The plates were flicked out, patted dry and blocked with bovine serum albumin (BSA)/DPBS (200 μl/well) for 1 to 4 hours at room temperature after which they were washed three times in water. • 3. […] Control wells were also set up in which the Caco-2 cell membrane preparations were incubated with unconjugated UEA-1. […] Following overnight incubation the plates were washed thoroughly (3–6 times). The plates were flicked out, patted dry and biotinylated UEA-1 was detected with commercial Streptavidin conjugated to horseradish peroxidase (HRP) (CalBiochem). […] The plates were left to incubate for an hour at room temperature. • 6. The plates were then washed 3–6 times and the biotin-streptavidin binding was detected by adding an HRP substrate OPD (orthophenyl diamine) to each well. 100 μl/well of this substrate at a final concentration of 1.6 mg/ml was added to each well. Before adding to the wells, this substrate was activated by addition of 50 μl of 3% H2O2 per plate and the reaction was allowed to develop in the dark. • 7. The reaction was stopped by adding 50 μl of 4 N H2SO4 to each well after approximately 5–10 minutes or when sufficient colour had developed. The OD490 (absorbance at 490 nm) of each well was measured using a conventional 96 well plate reading spectrophotometer. Two Tier Assays: • 1. 96 well plates were coated with Caco-2 cell membrane preparations in the same manner as described in the single tier assay. • 2. […] 100 μl at these final concentrations were added to each well. • 4. The plates were then left to incubate overnight, a step that would allow the mixtures and compounds to interact with the Caco-2 cell membranes without the presence of the competitor (biotinylated UEA-1) itself. • 5. […]

[4] = 50 μg/ml, first pair of columns
[5] = 50 μg/ml, second pair of columns
[6] = 250 μg/ml, first pair of columns
[7] = 250 μg/ml, second pair of columns

Structure (SMILES)	Single Tier Assay IC50 [1] [µg/mL]	IC50 [1] [µM]	IC50 [2] [µM]	Two Tier Assay IC50 [2] [µg/mL]	Av % Inhibition [3, 4] [%]	Av % Inhibition [3, 5] [%]	Av % Inhibition [3, 6] [%]	Av % Inhibition [3, 7] [%]
CCOC(=O)c1c(OC)cc(C(=O)O)cc1OC [compound 5, 4-ethoxycarbonyl-3,5-dimethoxybenzoic acid]	168.10	333	259	130.70	16	39	54	51
COc1ccc(C(=O)O)cc1OC [compound 10, 3,4-Dimethoxybenzoic acid]		711	356	125.00	−65	24	41	66
COc1cc(C(=O)O)cc(OC)c1OC [compound 20, 3,4,5-trimethoxybenzoic acid]		212	212		−121	52	24	75
COc1ccc(C(=O)O)cc1OC [compound 26, 3,4-Dimethoxybenzoic acid]	125.00	163	112	85.62	−116	39	−2	56

The next lines start with results.

Single Tier Assay IC50 [1] [µg/mL]	IC50 [1] [µM]	IC50 [2] [µM]	Structure (SMILES)	Two Tier Assay IC50 [2] [µg/mL]	Av % Inhibition [3, 4] [%]	Av % Inhibition [3, 5] [%]	Av % Inhibition [3, 6] [%]	Av % Inhibition [3, 7] [%]
125.00	299	412	O=C(O)c1cc(O)cc(O)c1 [compound 8, 3,5-dihydroxybenzoic acid]	171.90	59	0	85	50
	284	284	O=C(O)c1ccc(O)cc1 [compound 23, 4-Hydroxybenzoic acid]		52	39	21	59
	307	307	COc1cc(C(=O)O)cc(OC)c1O [compound 25, Syringic acid]		−173	65	66	63
